Results: publication PMC13197777, “Distinct 2-phenylimidazo[1,2-a]pyridine derivatives that inhibit breast cancer cell proliferation identified as AHR ligands” (iScience, 2026)

Legend:
[1] = Parallel artificial membrane permeability assay (PAMPA); conditions: for Conc. acceptor well / Conc. donor well: PAMPA after incubation
Procedure: The plates were stored at – 20 °C until ready for use. Prior to use, the plate was prewarmed at room temperature for 30 min. Donor- and acceptor solutions were prepared as 12 mM phosphate buffered saline with a pH of 6.5 (donor) respectively 7.4 (acceptor). […] Then, 300 μL of each donor solution were filled into the donor (bottom) wells of the PAMPA plate. 200 μL of the acceptor medium were loaded into each well of the pre-coated receiver plate (top). […] The compound concentrations in the donor- and acceptor wells were then determined using a Jasco 2 HPLC system equipped with a ReproSil-Pur 120 ODS-3 column (5 μm, 50 × 2 mm) and UV detection. […] The injection volume was 40 μL and the flow rate 1 mL/min. […] For X15695, two calibration curves were prepared in the presence (donor well) and absence (acceptor well) of 10% ethanol. (Figure S6). The experiments were performed in triplicates.
Where cA(t) is the compound concentration in the acceptor well in μmol⋅l^−1, cD(t) is the compound concentration in the donor well in […], VA and VD is the volume of the acceptor respectively donor solution per well in mL, A is the membrane area in cm^2 and t the incubation time in seconds (Table S3).

AHR = target: T1, AHR (Homo sapiens, UniProt P35869); assay: AHR luciferase reporter assay in HAHLH cells; assay type: cell-based; conditions: 8 h, % of maximal luciferase activity with dioxin 10 nM, read-out: EC50 AHR transactivation
T1 construct: endogenous in cells; host or cells: HAHLH (HeLa with XRE-luciferase reporter)
T1 sequence (P35869 11-848): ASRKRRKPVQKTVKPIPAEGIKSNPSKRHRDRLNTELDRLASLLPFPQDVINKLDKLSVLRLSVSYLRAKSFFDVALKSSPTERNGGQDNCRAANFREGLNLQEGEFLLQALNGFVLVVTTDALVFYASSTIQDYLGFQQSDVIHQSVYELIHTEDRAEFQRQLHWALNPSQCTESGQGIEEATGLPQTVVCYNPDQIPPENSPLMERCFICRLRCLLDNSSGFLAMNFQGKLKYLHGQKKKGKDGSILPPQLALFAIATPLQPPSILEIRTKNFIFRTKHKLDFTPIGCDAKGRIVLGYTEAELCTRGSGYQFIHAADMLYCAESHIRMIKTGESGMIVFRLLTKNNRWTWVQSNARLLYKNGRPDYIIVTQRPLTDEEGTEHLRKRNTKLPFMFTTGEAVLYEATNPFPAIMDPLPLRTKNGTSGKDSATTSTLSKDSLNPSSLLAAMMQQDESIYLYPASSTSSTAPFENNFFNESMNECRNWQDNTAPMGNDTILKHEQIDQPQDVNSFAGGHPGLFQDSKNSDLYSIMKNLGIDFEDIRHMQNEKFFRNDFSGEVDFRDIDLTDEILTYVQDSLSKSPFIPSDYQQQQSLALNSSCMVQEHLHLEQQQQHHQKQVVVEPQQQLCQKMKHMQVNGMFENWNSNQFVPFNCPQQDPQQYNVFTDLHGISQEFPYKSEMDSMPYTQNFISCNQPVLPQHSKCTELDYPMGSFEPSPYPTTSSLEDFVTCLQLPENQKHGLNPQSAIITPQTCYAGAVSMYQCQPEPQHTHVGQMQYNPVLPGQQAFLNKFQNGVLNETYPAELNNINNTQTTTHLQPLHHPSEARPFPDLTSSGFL
Source text: To characterize the chemical induced AHR activity, we used the already established HAHLH reporter cell lines obtained by stably expression of HeLa cells with the dioxin-responsive gene XRE(TnGCGTG)3-tata-luciferase-Luc-hygromycin plasmid.[29] The reporter HELN hERα cell line was obtained by transfecting human HeLa cells with the ERE-responsive gene ERE-βGlobin-luciferase-Luc-neomycin and the pSG5-hERα-puromycin plasmids as previously described.[59] To determine the action of the chemical on AHR and hERα activity, cells were seeded at a density of 50,000 cells per well in 96-well white opaque tissue culture plates (Greiner CellStar) in 150 μL of Dulbecco’s Modified Eagle Medium: Nutrient Mixture F-12 (DMEM/F- 12) without phenol red and 1 g/L glucose and supplemented with 5% stripped fetal bovine serum, 100 units/mL of penicillin, 100 μg/mL of streptomycin (test medium). Twenty-four hours later, chemicals to be tested were added at 4x concentration in culture medium, and cells were incubated at 37 °C for 8 h (HAhLH cells) or 24 h (HELN hERα cells). At the end of the incubation period, culture medium was replaced with test medium containing 0.3 mM luciferin and luciferase activity was measured for 2 s in intact living cells using a MicroBeta Wallac luminometer (PerkinElmer). Tests were performed in quadruplicate at 4x concentration in the same medium in at least 4 independent experiments. Results were expressed as % of the maximal luciferase activity. […] Effective concentration (ECs) for a given compound, EC50 is defined as the concentration inducing 50% of its maximal effect. The EC50 values were calculated including the adjustment for the basal activity of the cell line.

ERα full-length = target: T2, ERα full-length (Homo sapiens, UniProt P03372); assay: PolarScreen ERα Competitor Assay (fluorescence polarization); assay type: binding
T2 construct: 34 nM ERα full-length and 1.4 nM Fluormone EL Red were incubated; purchased ThermoFisher A15884
T2 sequence (P03372 1-595): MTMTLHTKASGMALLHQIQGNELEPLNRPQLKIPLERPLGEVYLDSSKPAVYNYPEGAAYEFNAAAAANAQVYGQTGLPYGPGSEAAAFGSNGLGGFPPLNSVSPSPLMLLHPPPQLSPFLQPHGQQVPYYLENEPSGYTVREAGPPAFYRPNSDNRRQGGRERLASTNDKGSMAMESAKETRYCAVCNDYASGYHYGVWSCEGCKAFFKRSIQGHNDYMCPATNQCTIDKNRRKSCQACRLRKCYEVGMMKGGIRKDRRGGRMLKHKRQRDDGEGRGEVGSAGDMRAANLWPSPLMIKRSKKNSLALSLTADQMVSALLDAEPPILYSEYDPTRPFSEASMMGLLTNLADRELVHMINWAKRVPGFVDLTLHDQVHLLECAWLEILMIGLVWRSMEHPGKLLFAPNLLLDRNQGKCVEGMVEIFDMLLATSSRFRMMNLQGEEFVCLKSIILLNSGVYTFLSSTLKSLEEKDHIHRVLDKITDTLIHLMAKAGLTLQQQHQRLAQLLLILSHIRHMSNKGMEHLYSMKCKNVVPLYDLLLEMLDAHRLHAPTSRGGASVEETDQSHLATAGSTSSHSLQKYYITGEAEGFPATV
Procedure: The PolarScreen Estrogen Receptor-Alpha Competitor Assay, Red (ThermoFisher, A15884) was used to determine if the X compounds bind to ERα. The assay was performed according to the manufacturer’s protocol.

[2] = system: ER+ MCF-7, ZR75–1, and T47D breast cancer cells; set-up: method as in PMID 37520743; conditions: previously identified ref 17; cited from earlier work
AHR-Hsp90-XAP2 = target: T3, AHR-Hsp90-XAP2 (Homo sapiens, UniProt P35869); assay: Thermal stability measurements (nano-DSF); assay type: binding; conditions: 2.5 μM protein, 12.5 μM compound
T3 construct: made in house
Procedure: Thermal denaturation experiments of AHR complexes in the presence of compounds were performed using a Tycho NT.6 instrument (NanoTemper Technologies). Protein samples were prepared as previously described[67] and subsequently diluted in the buffer containing 20 mM Bis-Tris–HCl pH 7.0, 50 mM NaCl, 10 mM KCl, 10 mM MgCl2, 20 mM Na2MoO4 and 2 mM β-mercaptoethanol to a final protein concentration of 2.5 μM. Compound stock solutions were prepared at 20 mM in DMSO and added to the protein samples to yield a final concentration of 12.5 μM. For control measurements, DMSO was added to a final concentration of 5% (v/v). Following ligand or DMSO addition, the samples were gently mixed and incubated at room temperature for 10 min to allow equilibration. Thermal denaturation profiles were acquired over a temperature range of 35°C–95°C, with a heating rate of 1 °C per min. Fluorescence was monitored at emission wavelengths of 330 nm and 350 nm, and the data were analyzed as the first derivative of the fluorescence ratio (F330/F350) as a function of temperature. All experiments were performed in triplicate, and data were analyzed using the Tycho NT.6 software (NanoTemper Technologies) according to the manufacturer’s recommendations.

ERα in MCF-7 cells = assay: Immunoblot of ERα in MCF-7 cells; assay type: cell-based, human; conditions: MCF-7, 48 h, increasing concentrations up to 1 μM
Procedure: To determine the relative expression of proteins by Western blotting, cells were first washed with ice-cold phosphate buffered saline (PBS). Subsequently, they were lysed in ice-cold NP40 lysis buffer (1%NP-40, 50 mM Tris-HCl, pH 8.0, 150 mM NaCl, 5 mM Ethylenediaminetetraacetic acid [EDTA], 1 mM PMSF) on ice. DNA was degraded by sonification (five pulses at 50 amplitudes). Protein concentration was determined, and equal amounts of protein were separated on a 9% SDS-PAGE gel. The proteins were transferred onto nitrocellulose membrane by a standard Western blotting protocol and the membranes were incubated with the following antibodies: ERα (Santa Cruz Biotechnology, sc-8002, RRID: AB_627558) and PCNA (Santa Cruz Biotechnology, sc-56, RRID: AB_628110), followed by incubation with HRP labeled Goat anti-mouse Immunoglobulins (DAKO, P0447, RRID: AB_2617137).

[3] = system: AHR target genes CYP1A1, CYP1B1, ALDH3A1; conditions: human, 16 h, 1 µM
MCF-7 cells = assay: Clonogenic assay in MCF-7 cells with AHR antagonist CH223191; assay type: cell-based, human; conditions: MCF-7, 10 nM compound, 1 μM CH223191, 14 days
Procedure: Cells were seeded at a density of 1–2×10^3 cells/well in a 6-well plate and treated with increasing concentrations of the X compounds for 14–21 days. Medium and compounds were renewed every 7 days. The experiments were terminated by fixing the cells with methanol and the colonies formed were visualized after staining with 0.5% crystal violet (w/v) in 20% methanol (v/v). Plates were photographed and the area covered by the colonies was calculated using the ColonyArea Plugin for Fiji (RRID:SCR_003070).[20]

T3 sequence (P08238 whole entry partner, one chain of several): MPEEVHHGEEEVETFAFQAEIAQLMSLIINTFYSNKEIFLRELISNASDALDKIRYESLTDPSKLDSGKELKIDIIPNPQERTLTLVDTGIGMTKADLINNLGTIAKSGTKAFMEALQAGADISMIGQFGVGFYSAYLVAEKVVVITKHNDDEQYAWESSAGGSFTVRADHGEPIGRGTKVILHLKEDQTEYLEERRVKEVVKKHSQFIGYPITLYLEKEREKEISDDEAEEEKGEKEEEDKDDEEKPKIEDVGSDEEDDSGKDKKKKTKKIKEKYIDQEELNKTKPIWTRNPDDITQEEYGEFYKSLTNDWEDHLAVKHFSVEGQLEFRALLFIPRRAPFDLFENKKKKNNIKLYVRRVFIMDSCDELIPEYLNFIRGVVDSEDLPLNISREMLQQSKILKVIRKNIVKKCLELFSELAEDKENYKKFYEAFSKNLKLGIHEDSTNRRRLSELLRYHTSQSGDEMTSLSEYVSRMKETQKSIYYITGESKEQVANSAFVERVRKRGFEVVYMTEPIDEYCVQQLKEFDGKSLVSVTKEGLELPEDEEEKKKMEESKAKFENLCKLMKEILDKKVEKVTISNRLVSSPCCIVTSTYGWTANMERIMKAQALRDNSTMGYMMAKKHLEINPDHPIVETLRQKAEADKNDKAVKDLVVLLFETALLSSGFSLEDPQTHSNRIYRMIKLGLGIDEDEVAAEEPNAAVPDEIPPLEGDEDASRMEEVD
T3 sequence (O00170 whole entry partner, one chain of several): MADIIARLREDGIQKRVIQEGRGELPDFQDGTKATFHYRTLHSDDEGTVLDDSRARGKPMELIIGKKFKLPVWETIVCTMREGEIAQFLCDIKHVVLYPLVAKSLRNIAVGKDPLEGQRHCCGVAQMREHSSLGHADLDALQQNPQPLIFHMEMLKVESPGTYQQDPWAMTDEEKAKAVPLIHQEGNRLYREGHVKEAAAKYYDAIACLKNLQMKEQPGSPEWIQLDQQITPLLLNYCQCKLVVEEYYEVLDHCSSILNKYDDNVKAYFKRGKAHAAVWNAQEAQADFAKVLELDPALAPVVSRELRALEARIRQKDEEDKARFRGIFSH

Cn1c(=O)c2c(ncn2C)n(C)c1=O [Caffeine]
Papp at 5 h, 200 µM ([1]; PAMPA): 10.7 ×10⁻⁶ cm/s | Conc. acceptor well ([1]; replica 1): 43.91 µM | Conc. donor well ([1]; replica 1): 160.76 µM | Conc. acceptor well ([1]; replica 2): 41.44 µM | Conc. donor well ([1]; replica 2): 161.45 µM | Conc. acceptor well ([1]; replica 3): 46.38 µM | Conc. donor well ([1]; replica 3): 165.23 µM

Clc1cc2c(cc1Cl)Oc1cc(Cl)c(Cl)cc1O2 [Dioxin, reference compound]
EC50 (AHR): 0.00124 µM

O=C1NC(=O)C(c2ccccc2)(c2ccccc2)N1 [Phenytoin]
Conc. acceptor well ([1]; replica 1): 7.15 µM | Conc. donor well ([1]; replica 1): 112.02 µM | Conc. acceptor well ([1]; replica 2): 10.14 µM | Conc. donor well ([1]; replica 2): 117.35 µM | Conc. acceptor well ([1]; replica 3): 14.06 µM | Conc. donor well ([1]; replica 3): 120.53 µM

Cc1cccn2cc(-c3ccc(F)cc3)nc12 [X19167]
EC50 (AHR): 0.173 µM | displacement of the Fluormone tracer from ERα (ERα full-length): failed to displace the Fluormone | Inhibition of Proliferation [2]: No | thermal stabilization of AHR (nano-DSF) (AHR-Hsp90-XAP2): promote AHR destabilization | ERα destabilization (immunoblot) (ERα in MCF-7 cells): no significant ERα destabilization

Fc1ccccc1-c1cn2ccccc2n1 [X19712]
displacement of the Fluormone tracer from ERα (ERα full-length): failed to displace the Fluormone | Inhibition of Proliferation [2]: No | thermal stabilization of AHR (nano-DSF) (AHR-Hsp90-XAP2): promote AHR destabilization | ERα destabilization (immunoblot) (ERα in MCF-7 cells): no significant ERα destabilization

Cc1cccn2cc(-c3ccccc3F)nc12 [X19718]
displacement of the Fluormone tracer from ERα (ERα full-length): failed to displace the Fluormone | Inhibition of Proliferation [2]: No | thermal stabilization of AHR (nano-DSF) (AHR-Hsp90-XAP2): promote AHR destabilization | ERα destabilization (immunoblot) (ERα in MCF-7 cells): no significant ERα destabilization

Fc1ccc(-c2cn3cc(C(F)(F)F)ccc3n2)cc1 [X20046]
Inhibition of Proliferation [2]: Yes | expression of AHR target genes (RT-PCR) [3]: enhanced the transcriptional activity of the AHR target genes in both MCF-7 and T47D cells | inhibition of colony expansion in the presence of AHR antagonist CH223191 (MCF-7 cells): clearly abrogated by the AHR antagonist CH223191 | ERα destabilization (immunoblot) (ERα in MCF-7 cells): most proficient in destabilizing ERα
